The experiment deals with T1, rTgGlo1 (recombinant Toxoplasma gondii glyoxalase 1) (Toxoplasma gondii, UniProt A0A7J6JV59).
T1 construct: gene TGRH88_062270; full-length ORF (1008 nt, printed 336 residues) in pRSETb, His-tagged, E. coli BL21(DE3)pLysS; S-hexylglutathione-agarose then Ni-NTA; two glyoxalase domains 20-167 and 181-325
T1 sequence (A0A7J6JV59 1-336): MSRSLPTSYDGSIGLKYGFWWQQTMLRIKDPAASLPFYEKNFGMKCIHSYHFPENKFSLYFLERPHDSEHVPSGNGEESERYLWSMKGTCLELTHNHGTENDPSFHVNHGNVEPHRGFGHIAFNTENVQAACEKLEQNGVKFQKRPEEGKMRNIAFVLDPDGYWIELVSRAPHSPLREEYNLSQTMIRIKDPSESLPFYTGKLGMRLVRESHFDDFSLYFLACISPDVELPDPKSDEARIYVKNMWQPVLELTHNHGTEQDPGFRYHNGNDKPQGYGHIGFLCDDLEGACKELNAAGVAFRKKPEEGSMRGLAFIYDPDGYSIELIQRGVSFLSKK
The experiment in a line: spectrophotometric at […] nm, Lineweaver-Burk. It is filed as biochemical.

Turning to `COc1cc(/C=C/C(=O)CC(=O)/C=C/c2ccc(O)c(OC)c2)ccc1O` [curcumin], the Ki (usually the equilibrium dissociation constant of an inhibitor or competing ligand from its target) came out at 12.9 ± 0.5 µM.

For the origin of these results see paper PMC4688987, “Characterization of Toxoplasma gondii glyoxalase 1 and evaluation of inhibitory effects of curcumin on the enzyme and parasite cultures” (Parasites & Vectors, 2015).
